The target in series [1] is amyloid β 1–42 peptide (Homo sapiens, UniProt P05067). The experiment in a line: Aβ-42 self-aggregation inhibition assay. It is filed as biochemical. The following applies: read-out: inhibition of self-aggregation of Aβ1–42 monomers.
Series [2] in a line: in vitro. The following applies: pig, PAMPA, pH 7.4.
Series [3] has as its target T1, hBACE-1 (Homo sapiens, UniProt P56817). Nature of the series: biochemical.
Series [4] has as its target eqBChE (Equus caballus, UniProt P81908). Nature of the series: BChE inhibition and enzyme kinetics, Ellman assay. In kind it is biochemical, equine.
For series [5], the target named is T1, hBACE-1. To be noted: Lineweaver–Burk double-reciprocal plot.
For series [6] the following is noted: PAMPA–BBB.
For series [7], the target named is EeAChE (Electrophorus electricus, UniProt O42275). The experiment in a line: AChE inhibition and enzyme kinetics, Ellman assay. In kind it is biochemical, electric eel. The following applies: for IC50: IC50 (μM) ± SD EeAChE, Ellman assay.
EeAChE, sequence (O42275 24-633): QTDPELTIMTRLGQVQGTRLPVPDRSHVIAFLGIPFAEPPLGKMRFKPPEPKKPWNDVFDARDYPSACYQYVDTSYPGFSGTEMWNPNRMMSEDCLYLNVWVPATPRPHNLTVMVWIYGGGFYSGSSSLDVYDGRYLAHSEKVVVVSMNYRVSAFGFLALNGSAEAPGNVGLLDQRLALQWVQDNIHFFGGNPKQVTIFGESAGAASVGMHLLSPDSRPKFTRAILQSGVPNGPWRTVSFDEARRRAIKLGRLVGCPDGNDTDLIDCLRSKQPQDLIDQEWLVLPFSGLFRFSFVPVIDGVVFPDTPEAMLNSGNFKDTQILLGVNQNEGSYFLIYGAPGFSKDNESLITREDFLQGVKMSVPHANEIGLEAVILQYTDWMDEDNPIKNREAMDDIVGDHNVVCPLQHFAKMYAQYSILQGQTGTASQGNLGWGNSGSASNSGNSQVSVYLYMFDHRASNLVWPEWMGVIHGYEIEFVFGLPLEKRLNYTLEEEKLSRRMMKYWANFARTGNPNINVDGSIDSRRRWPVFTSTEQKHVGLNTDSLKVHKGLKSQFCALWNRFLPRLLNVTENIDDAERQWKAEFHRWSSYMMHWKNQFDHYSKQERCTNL
The mark [8] stands for this setting: Lineweaver–Burk double-reciprocal plot.

The values that follow come from publication PMC10061512 (ACS Omega, 2023).

Each structure is given as a SMILES string.

T1 sequence (P56817 46-501): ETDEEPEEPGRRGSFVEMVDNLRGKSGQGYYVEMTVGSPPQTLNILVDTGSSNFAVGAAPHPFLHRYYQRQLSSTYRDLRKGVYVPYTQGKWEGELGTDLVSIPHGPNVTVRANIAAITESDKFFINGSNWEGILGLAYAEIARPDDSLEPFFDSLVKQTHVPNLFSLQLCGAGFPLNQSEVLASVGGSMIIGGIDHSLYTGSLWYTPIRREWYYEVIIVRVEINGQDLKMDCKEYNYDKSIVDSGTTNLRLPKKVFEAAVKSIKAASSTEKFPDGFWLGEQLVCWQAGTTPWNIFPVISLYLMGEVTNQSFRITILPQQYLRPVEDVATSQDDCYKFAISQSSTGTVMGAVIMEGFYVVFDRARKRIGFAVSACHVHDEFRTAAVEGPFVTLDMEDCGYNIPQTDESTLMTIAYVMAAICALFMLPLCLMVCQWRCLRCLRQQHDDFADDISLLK
eqBChE, sequence (P81908 whole entry): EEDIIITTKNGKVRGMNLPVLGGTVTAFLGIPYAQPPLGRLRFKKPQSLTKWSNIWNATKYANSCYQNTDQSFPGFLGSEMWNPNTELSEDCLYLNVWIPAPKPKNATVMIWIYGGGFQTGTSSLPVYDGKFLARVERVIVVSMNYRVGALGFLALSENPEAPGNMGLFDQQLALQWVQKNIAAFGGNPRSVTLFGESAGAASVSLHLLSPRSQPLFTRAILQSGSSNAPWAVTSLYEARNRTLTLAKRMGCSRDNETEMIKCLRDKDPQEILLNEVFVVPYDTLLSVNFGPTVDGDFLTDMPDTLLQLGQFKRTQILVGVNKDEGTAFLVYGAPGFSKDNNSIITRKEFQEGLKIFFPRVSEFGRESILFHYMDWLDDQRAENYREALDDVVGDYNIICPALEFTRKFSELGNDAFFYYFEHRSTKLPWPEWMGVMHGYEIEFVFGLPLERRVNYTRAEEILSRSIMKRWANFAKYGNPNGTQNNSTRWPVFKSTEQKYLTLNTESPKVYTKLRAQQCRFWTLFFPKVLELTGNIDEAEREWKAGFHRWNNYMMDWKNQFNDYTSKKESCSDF
amyloid β 1–42 peptide, sequence (P05067 672-713): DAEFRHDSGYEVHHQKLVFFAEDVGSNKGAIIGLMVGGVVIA

With `COc1cc(/C=C/C(=O)CC(=O)/C=C/c2ccc(O)c(OC)c2)ccc1O` [curcumin, reference compound], the inhibition at 10 µM in series [1] is 81%.
For the compound `COc1cc(Cn2cc(COc3ccc4ccc(=O)oc4c3C(C)=O)nn2)cc(OC)c1` [10b, 8-Acetyl-7-((1-(3,5-dimethoxybenzyl)-1H-1,2,3-triazol-4-yl)methoxy)-2H-chromen-2-one], the Papp in series [2] worked out at 5.68 ± 1.1 ×10⁻⁶ cm/s. Moreover, the Ki in series [3] came to 7 µM; in series [4], 3.5 µM; in series [7] it was 0.27 µM. The IC50 in series [4] came to 3.26 ± 0.13 µM; in series [7], 2.57 ± 0.31 µM. In series [4] (setting [8]), the “mode of inhibition, BChE” value is given as “mixed type”. The inhibition at 10 µM in series [1] came to 37%. In series [5], the “mode of inhibition, BACE-1” value is “mixed type”. For the same compound, the “prediction of CNS permeation” value in series [6] is “CNS+”. Also, the “fold difference in AChE inhibition activity of 10b vs 19b” value in series [7] (10b vs 19b) turned out to be 20 fold. Also, the “mode of inhibition, AChE” value in series [7] (setting [8]) was “noncompetitive”.
In the case of `O=c1cc(OCc2cn(Cc3ccc([N+](=O)[O-])cc3)nn2)c2ccccc2o1` [8p, 4-((1-(4-Nitrobenzyl)-1H-1,2,3-triazol-4-yl)methoxy)-2H-chromen-2-one], the IC50 in series [3] came to 156 ± 1.09 µM; in series [4], 220 ± 3.04 µM; in series [7] it was 200.4 ± 0.85 µM.
On the same counts, the results for `O=c1ccc2ccc(OCc3cn(Cc4ccccc4C(F)(F)F)nn3)cc2o1` [19c, 7-((1-(2-(Trifluoromethyl)benzyl)-1H-1,2,3-triazol-4-yl)methoxy)-2H-chromen-2-one] are 17.7 ± 0.65 µM, 77.3 ± 6.38 µM and 20.6 ± 0.95 µM.
On the same counts, the results for `O=c1cc(OCc2cn(Cc3cccc(F)c3)nn2)c2ccccc2o1` [8f, 4-((1-(3-Fluorobenzyl)-1H-1,2,3-triazol-4-yl)methoxy)-2H-chromen-2-one] are 22.3 ± 1.54 µM, 236 ± 3.6 µM and 232.8 ± 2.31 µM.
On the same counts, the results for `COc1cc(Cn2cc(COc3cc4oc(=O)cc(C)c4cc3OC)nn2)cc(OC)c1` [16b, 7-((1-(3,5-Dimethoxybenzyl)-1H-1,2,3-triazol-4-yl)methoxy)-6-methoxy-4-methyl-2H-chromen-2-one] are 9.06 ± 0.88 µM, 191.2 ± 1.13 µM and 151 ± 5.05 µM.
Regarding `O=c1cc(OCc2cn(Cc3ccccc3)nn2)c2ccccc2o1` [8a, 4-((1-Benzyl-1H-1,2,3-triazol-4-yl)methoxy)-2H-chromen-2-one], the IC50 amounted to 72.9 ± 2.4 µM in series [3], 212 ± 2.55 µM in series [4] and 151 ± 3.14 µM in series [7].
The like results for `O=c1cc(O)c2ccccc2o1` [compound 5, 4-hydroxycoumarin] were, in that order, 169 ± 7.67 µM, 167 ± 5.63 µM and 139 ± 1.85 µM.
As to `CC(=O)c1c(OCc2cn(Cc3ccccc3OC(F)(F)F)nn2)ccc2ccc(=O)oc12` [10d, 8-Acetyl-7-((1-(2-(trifluoromethoxy)benzyl)-1H-1,2,3-triazol-4-yl)methoxy)-2H-chromen-2-one], the IC50 turned out to be 142 ± 1.59 µM in series [3], 170 ± 1.76 µM in series [4] and 139 ± 1.64 µM in series [7].
On the same counts, the results for `COc1cc(Cn2cc(COc3ccc4ccc(=O)oc4c3)nn2)cc(OC)c1` [19b, 7-((1-(3,5-Dimethoxybenzyl)-1H-1,2,3-triazol-4-yl)methoxy)-2H-chromen-2-one] are 132 ± 2.02 µM, 63.2 ± 2.44 µM and 59.7 ± 0.62 µM.
The like results for `COc1cccc(Cn2cc(COc3cc(=O)oc4ccccc34)nn2)c1` [8n, 4-((1-(3-Methoxybenzyl)-1H-1,2,3-triazol-4-yl)methoxy)-2H-chromen-2-one] were, in that order, 126 ± 4.18 µM, 140 ± 6.25 µM and 11.4 ± 1.16 µM.
`O=c1cc(OCc2cn(Cc3c(Cl)cccc3Cl)nn2)c2ccccc2o1` [8d, 4-((1-(2,6-Dichlorobenzyl)-1H-1,2,3-triazol-4-yl)methoxy)-2H-chromen-2-one]: the figures for the IC50 in series [3], in series [4] and in series [7] were 106 ± 1.38 µM, 40.3 ± 0.93 µM and 59.4 ± 2.71 µM, respectively.
The like results for `O=c1cc(OCc2cn(Cc3c(F)cccc3F)nn2)c2ccccc2o1` [8h, 4-((1-(2,6-Difluorobenzyl)-1H-1,2,3-triazol-4-yl)methoxy)-2H-chromen-2-one] were, in that order, 135 ± 1.9 µM, 66.7 ± 1.37 µM and 73.89 ± 0.63 µM.
For `Cc1cc(=O)oc2cc(O)c(O)cc12` [compound 11, 4-methyl-6,7-dihydroxycoumarin], the values for the IC50 in series [3], in series [4] and in series [7] were 105 ± 3.48 µM, 148 ± 5.46 µM and 68.1 ± 4.05 µM, respectively.
